Patent US11401264B2, “Heterocyclic compound” (Orizuru Therapeutics, Inc., priority 2018, dated 2022)

System: cardiomyocytes from double knock-in human iPS cell lines (mCherry at TNNI3 locus)
Experiment: Experimental Example 1: mCherry (TNNI3 reporter) immunostaining measured by high contents screening
Assay type: cell-based
Design: key to average fluorescent intensity (at 30 μM): —: The symbol in Table 2 means that the average fluorescent intensity cannot be evaluated due to cell decrease
Settings: read on 8th day, Alexa 647 anti-mCherry, control well 797; for average fluorescent intensity (at 1 μM): test compound 1 μM added on 3rd and 6th culture days; for average fluorescent intensity (at 30 μM): test compound 30 μM added on 3rd and 6th culture days
Description: For detection of cardiomyocyte maturation, double knock-in human iPS cell lines, in which reporter protein sequences, EmGFP (Sequence Number 1) and mCherry (Sequence Number 2) were inserted into gene loci for TNNI1 and TNNI3, respectively, were prepared (the human iPS cells were prepared from episomal vector (loaded gene; OCT3/4, KLF4, SOX2, L-MYC, LIN28, mouse p53DD) using PBMC (LP_167, Sample ID: 20130318) purchased from CTL (reference literature; Okita K, et al. Stem Cells. 2012 Nov. 29. doi: 10.1002/stem.1293)).
The maintenance culture of the above-mentioned reporter iPS cell lines was carried out by a conventional method (Okita K, et al. Stem Cells. 2012 Nov. 29. doi: 10.1002/stem.1293).
For differentiation induction into cardiomyocytes, the reporter iPS cell lines were treated with 0.5×TrypLE select (Life Technologies, diluted in 1/2 with 0.5 mM EDTA/PBS) for 4 to 5 minutes, and the cells were exfoliated using a cell scraper (IWAKI), and then dissociated into the single cell by pipetting. The medium was removed by centrifugation (1,000 rpm, 5 min), and the obtained cells were seeded on a bioreactor (ABLE) by 1×10^7 cells per 30 mL of the bioreactor, and then cultured in a medium prepared by adding 1% L-glutamine, transferrin 150 μg/mL, ascorbic acid 50 μg/mL (Sigma), monothioglycerol 4×10^−4 M, 10 μM Rock inhibitor (Y-27632), 2 ng/mL BMP4 (R&D) and 0.5% Matrigel (Growth Factor Reduced) to a medium after removal of solution C from StemFit AK02 (AJINOMOTO AK02, 400 mL of solution A and 100 mL of B solution, total 500 mL), at 37° C., under 5% oxygen condition (55 rpm, stirred suspension culture method) to form embryoid bodies (0 day).
Next day (1st day), 9 μL (final concentration 3 ng/mL) of 10 μg/mL activin A, 15 μL (final concentration 5 ng/mL) of 10 μg/mL bFGF and […] (final concentration 10 ng/mL) of 10 μg/mL BMP4 were added to the bioreactor, and the cells were cultured at 37° C. for additional 2 days, under 5% oxygen condition.
Then (3rd day), the obtained embryoid bodies were collected in a 50 mL centrifuge tube, and then subjected to centrifugation (200 g, 1 min). The medium was removed, and the embryoid bodies were cultured in a medium prepared by adding 1% L-glutamine, transferrin 150 μg/mL, ascorbic acid 50 μg/mL (Sigma), monothioglycerol 4×10^−4 M, 10 ng/mL VEGF, 1 μM IWP-3, 0.6 μM dorsomorphin and 5.4 μM SB431542 to a medium after removal of solution C from StemFit AK02 (AJINOMOTO AK02, 400 mL of solution A and 100 mL of B solution, total 500 mL), at 37° C. for 3 days, under 5% oxygen condition (55 rpm, stirred suspension culture method).
Then (6th day), the bioreactor was left to stand to precipitate the embryoid bodies, and 80 to 90% of the medium was removed. A medium prepared by adding 1% L-glutamine, transferrin 150 μg/mL, ascorbic acid 50 μg/mL (Sigma), monothioglycerol […] and 5 ng/mL VEGF to a medium after removal of solution C from StemFit AK02 (AJINOMOTO AK02, 400 mL of solution A and 100 mL of B solution, total 500 mL) was added to the bioreactor so that the total volume became 30 mL, and the embryoid bodies were cultured for 8 days, at 37° C., under 5% oxygen condition (55 rpm, stirred suspension culture method). During the culture, the medium was replaced with a medium under the same conditions every 2 to 3 days.
14th Day after the start of the differentiation induction, the embryoid bodies were treated with 2 mg/mL collagenase type I (Sigma) for 2 hr, and then with 0.25% trypsin/EDTA (Invitrogen) for 10 min. 50% FBS/IMDM (Thermo Fisher Science) was added thereto, and the embryoid bodies were dissociated into the single cell by pipetting, and then subjected to centrifugation (1,000 rpm, 5 minutes). […]

| SMILES | average fluorescent intensity (at 1 μM) | average fluorescent intensity (at 30 μM) |
| --- | --- | --- |
| O=C1c2ccc(N3CCCCC3)cc2CN1c1ccc2[nH]c(-c3ccccc3)nc2c1 [Example 1, 2-(2-phenyl-1H-benzimidazol-5-yl)-5-(piperidin-1-yl)isoindolin-1-one] | 1098 | — |
| O=C1c2ccc(N3CCCCC3)cc2CN1c1ccc2[nH]c(Cc3ccccc3)nc2c1 [Example 2, 2-(2-benzyl-1H-benzimidazol-5-yl)-5-(piperidin-1-yl)isoindolin-1-one] | 943 | 1073 |
| O=C1c2ccc(N3CCCCC3)cc2CN1c1ccc2[nH]c(-c3ccc(OCc4ccccc4)cc3)nc2c1 [Example 3, 2-(2-(4-(benzyloxy)phenyl)-1H-benzimidazol-5-yl)-5-(piperidin-1-yl)isoindolin-1-one] | 933 | 1441 |
| COC(=O)COc1ccc(-c2nc3cc(N4Cc5cc(N6CCCCC6)ccc5C4=O)ccc3[nH]2)cc1 [Example 5, methyl (4-(5-(l-oxo-5-(piperidin-1-yl)-1,3-dihydro-2H-isoindol-2-yl)-1H-benzimidazol-2-yl)phenoxy)acetate] | 1078 | — |
| O=C(O)COc1ccc(-c2nc3cc(N4Cc5cc(N6CCCCC6)ccc5C4=O)ccc3[nH]2)cc1 [Example 6, (4-(5-(l-oxo-5-(piperidin-1-yl)-1,3-dihydro-2H-isoindol-2-yl)-1H-benzimidazol-2-yl)phenoxy)acetic acid] | 974 | 987 |
| COc1ccc(-c2nc3cc(N4Cc5ccccc5C4=O)ccc3[nH]2)cc1 [Example 7, 2-(2-(4-methoxyphenyl)-1H-benzimidazol-5-yl)isoindolin-1-one] | 859 | 1631 |
| O=C(COc1ccc(-c2nc3cc(N4Cc5cc(N6CCCCC6)ccc5C4=O)ccc3[nH]2)cc1)NC/C=C/CCc1ccccc1 [Example 9, 2-(4-(5-(1-oxo-5-(piperidin-1-yl)-1,3-dihydro-2H-isoindol-2-yl)-1H-benzimidazol-2-yl)phenoxy)-N-((2E)-5-phenylpent-2-en-1-yl)acetamide] | 948 | — |
| O=C(COc1ccc(-c2nc3cc(N4Cc5cc(N6CCCCC6)ccc5C4=O)ccc3[nH]2)cc1)NCCNc1cccc(F)c1 [Example 10, N-(2-((3-fluorophenyl)amino)ethyl)-2-(4-(5-(1-oxo-5-(piperidin-1-yl)-1,3-dihydro-2H-isoindol-2-yl)-1H-benzimidazol-2-yl)phenoxy)acetamide] | 1032 | — |
| CN(CCc1ccccc1)C(=O)CNC(=O)COc1ccc(-c2nc3cc(N4Cc5cc(N6CCCCC6)ccc5C4=O)ccc3[nH]2)cc1 [Example 11, N-methyl-N^~2^~-((4-(5-(1-oxo-5-(piperidin-1-yl)-1,3-dihydro-2H-isoindol-2-yl)-1H-benzimidazol-2-yl)phenoxy)acetyl)-N-(2-phenylethyl)glycinamide] | 1182 | — |
| O=C(COc1ccc(-c2nc3cc(N4Cc5cc(N6CCCCC6)ccc5C4=O)ccc3[nH]2)cc1)NCCCc1ccncc1 [Example 12, 2-(4-(5-(1-oxo-5-(piperidin-1-yl)-1,3-dihydro-2H-isoindol-2-yl)-1H-benzimidazol-2-yl)phenoxy)-N-(3-(pyridin-4-yl)propyl)acetamide] | 1675 | 1226 |
| CN(C)C(=O)C(NC(=O)COc1ccc(-c2nc3cc(N4Cc5cc(N6CCCCC6)ccc5C4=O)ccc3[nH]2)cc1)c1ccccc1 (centres unmarked) [Example 13, N,N-dimethyl-2-(((4-(5-(1-oxo-5-(piperidin-1-yl)-1,3-dihydro-2H-isoindol-2-yl)-1H-benzimidazol-2-yl)phenoxy)acetyl)amino)-2-phenylacetamide] | 1212 | — |
| CN(C(=O)COc1ccc(-c2nc3cc(N4Cc5cc(N6CCCCC6)ccc5C4=O)ccc3[nH]2)cc1)C1CCOCC1 [Example 14, N-methyl-2-(4-(5-(1-oxo-5-(piperidin-1-yl)-1,3-dihydro-2H-isoindol-2-yl)-1H-benzimidazol-2-yl)phenoxy)-N-(tetrahydro-2H-pyran-4-yl)acetamide] | 2143 | 2012 |
| CC1(O)CCN(C(=O)COc2ccc(-c3nc4cc(N5Cc6cc(N7CCCCC7)ccc6C5=O)ccc4[nH]3)cc2)CC1 [Example 15, 2-(2-(4-(2-(4-hydroxy-4-methylpiperidin-1-yl)-2-oxoethoxy)phenyl)-1H-benzimidazol-5-yl)-5-(piperidin-1-yl)isoindolin-1-one] | 1701 | 2697 |
| O=C(COc1ccc(-c2nc3cc(N4Cc5cc(N6CCCCC6)ccc5C4=O)ccc3[nH]2)cc1)N1CCS(=O)(=O)C1 [Example 16] | 1366 | 3604 |
| CC1(NC(=O)COc2ccc(-c3nc4cc(N5Cc6cc(N7CCCCC7)ccc6C5=O)ccc4[nH]3)cc2)CC1 [Example 18, N-(1-methylcyclopropyl)-2-(4-(5-(1-oxo-5-(piperidin-1-yl)-1,3-dihydro-2H-isoindol-2-yl)-1H-benzimidazol-2-yl)phenoxy)acetamide] | 1272 | 1704 |
| O=C(COc1ccc(-c2nc3cc(N4Cc5cc(N6CCCCC6)ccc5C4=O)ccc3[nH]2)cc1)Nc1ccc(F)cc1 [Example 19, N-(4-fluorophenyl)-2-(4-(5-(1-oxo-5-(piperidin-1-yl)-1,3-dihydro-2H-isoindol-2-yl)-1H-benzimidazol-2-yl)phenoxy)acetamide] | 1292 | 860 |
| O=C(COc1ccc(-c2nc3cc(N4Cc5cc(N6CCCCC6)ccc5C4=O)ccc3[nH]2)cc1)Nc1ccccc1F [Example 20, N-(2-fluorophenyl)-2-(4-(5-(1-oxo-5-(piperidin-1-yl)-1,3-dihydro-2H-isoindol-2-yl)-1H-benzimidazol-2-yl)phenoxy)acetamide] | 1685 |  |
| O=C(COc1ccc(-c2nc3cc(N4Cc5cc(N6CCCCC6)ccc5C4=O)ccc3[nH]2)cc1)Nc1ccc(Cl)cc1 [Example 21, N-(4-chlorophenyl)-2-(4-(5-(1-oxo-5-(piperidin-1-yl)-1,3-dihydro-2H-isoindol-2-yl)-1H-benzimidazol-2-yl)phenoxy)acetamide] | 1120 | — |
